Source: patent US12226412B2, “Heteroaryl-ketone fused azadecalin glucocorticoid receptor modulators” (Corcept Therapeutics, Inc., priority 2012, dated 2025)
pKi: −log10 of the molar value. Like-named read-outs stand apart in the source and are kept apart here.

Legend:
[1] = tested on: induction of TAT by dexamethasone in HepG2 cells; assay: HepG2 tyrosine aminotransferase (TAT) assay; type: cell-based, human
Procedure: Example 21. HepG2 Tyrosine Aminotransferase (TAT) Assay
Glucocorticoid mediated activation of TAT occurs by transactivation of glucocorticoid response elements in the TAT promoter by glucocorticoid receptor agonist complex.
TAT activity was measured as outlined in the literature by A. Ali et al., J. Med. Chem., 2004, 47, 2441-2452.
HepG2 cells were cultured using MEME media supplemented with 10% (v/v) foetal bovine serum; 2 mM L-glutamine and 1% (v/v) NEAA at 37° C., 5%/95% (v/v) CO2/air. The HepG2 cells were counted and adjusted to yield a density of 0.125×10^6 cells/ml in RPMI 1640 without phenol red, 10% (v/v) charcoal stripped FBS, 2 mM L-glutamine and seeded at 25,000 cells/well in 200 μl into 96 well, sterile, tissue culture micro titre plates, and incubated at 37° C., 5% CO2 for 24 hours
Growth media was removed and replaced with assay media {RPMI 1640 without phenol red, 2 mM L-glutamine+10 μM forskolin}. […] Compounds were serially half log diluted in 100% (v/v) dimethylsupfoxide from a 10 mM stock.
HepG2 cells were then lysed with 30 μl of cell lysis buffer containing a protease inhibitor cocktail for 15 minutes at 4° C. 155 μl of substrate mixture was then added containing 5.4 mM Tyrosine sodium salt, 10.8 mM alpha ketoglutarate and 0.06 mM pyridoxal 5′ phosphate in 0.1M potassium phosphate buffer (pH 7.4). After 2 hours incubation at 37° C. the reaction was terminated by the addition of 15 μl of 10M aqueous potassium hydroxide solution, and the plates incubated for a further 30 minutes at 37° C. The TAT activity product was measured by absorbance at […].
[compound] and fitting the data to a 4 parameter logistic equation.

human recombinant GR = target: T1, human recombinant GR (Homo sapiens, UniProt P04150); assay: Human glucocorticoid receptor (GR) fluorescence polarisation (FP) binding assay
T1 construct: purchased PanVera P2812
T1 sequence (P04150 1-777): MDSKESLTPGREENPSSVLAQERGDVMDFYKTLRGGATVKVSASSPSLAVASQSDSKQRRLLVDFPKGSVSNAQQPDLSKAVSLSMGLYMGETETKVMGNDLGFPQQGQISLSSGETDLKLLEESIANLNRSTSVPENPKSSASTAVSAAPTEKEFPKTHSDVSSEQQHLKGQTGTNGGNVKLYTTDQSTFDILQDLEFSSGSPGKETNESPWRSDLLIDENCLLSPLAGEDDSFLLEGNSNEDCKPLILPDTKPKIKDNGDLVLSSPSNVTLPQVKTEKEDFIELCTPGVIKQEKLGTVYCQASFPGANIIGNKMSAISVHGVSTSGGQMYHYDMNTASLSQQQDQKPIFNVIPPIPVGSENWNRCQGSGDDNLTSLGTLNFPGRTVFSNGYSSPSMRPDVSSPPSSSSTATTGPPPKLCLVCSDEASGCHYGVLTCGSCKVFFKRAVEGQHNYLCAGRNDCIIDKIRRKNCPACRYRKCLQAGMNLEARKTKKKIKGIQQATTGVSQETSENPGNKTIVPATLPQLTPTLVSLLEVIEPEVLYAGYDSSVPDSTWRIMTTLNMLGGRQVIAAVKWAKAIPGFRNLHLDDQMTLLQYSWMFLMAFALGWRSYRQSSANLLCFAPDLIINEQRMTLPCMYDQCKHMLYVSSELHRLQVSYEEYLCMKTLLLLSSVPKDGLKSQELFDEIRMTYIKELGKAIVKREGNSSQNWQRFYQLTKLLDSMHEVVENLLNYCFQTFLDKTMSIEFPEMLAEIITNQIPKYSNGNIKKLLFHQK
Procedure: Human Glucocorticoid Receptor (GR) Fluorescence Polarisation (FP) Binding Assay
The following is a description of a FP assay for measuring compound inhibition of labelled glucocorticoid binding to the human recombinant GR.
The binding affinity of test compounds was determined using a FP binding assay using human recombinant GR (PanVera P2812) and a fluorescent labelled glucocorticoid ligand (Fluorome GS Red) (PanVera P2894). The presence of inhibitors prevents the formation of a GS Red/GR complex resulting in a decrease in the measured polarisation value. The change in polarisation value in the presence of test compounds is used to calculate the binding affinity of the compound for GR.
This assay was performed in 384 well, black, round-bottom, polypropylene micro titre plates in a final volume of 20 μl. The assay contained 5 μl 1 nM GR (final concentration), 5 μl 0.5 nM Fluorome GS Red (final concentration) in the presence of 10 μl test compounds. Positive control wells (high polarisation) receive, 10 μl 2% (v: v) DMSO vehicle (1% (v/v) final concentration)+5 μl 1 nM GR and 5 μl 0.5 nM Fluorome GS Red. […] Assay blank background wells (used for normalisation) receive 15 μl 1× GS screening buffer+5 μl GR.
Compounds were prepared as solubilised solids at 10 mM in DMSO. On the day of assay, an 8 point half-log serial dilution (55 μl DMSO+25 μl compound solution) was prepared. A 1:50 dilution (1 μl compound solution+49 μl 1× GR screening buffer) was prepared for each compound. The compounds were prepared at 2× final assay concentration.
The plates were mixed and incubated for 4 hour at room temperature.
10× GR screening buffer (100 mM potassium phosphate pH 7.4, 200 mM Na2MoO4, 1 mM EDTA, 20% (v/v) DMSO). To prepare 1× GR screening buffer, combine 1 ml 10× GR screening buffer (PanVera P2814)+1 ml stabilising peptide (PanVera P2815)+7.95 ml 4° C. MQ water. Add 50 μl 1M DTT, vortex and place on ice until use.

[2] = HepG2 cells, challenge of 100 nM dexamethasone, Ki from IC50 by Cheng and Prusoff equation
[3] = human recombinant GR, fluorescence polarisation binding assay, read-out: GR binding

pKi (human recombinant GR; [3]) | Structure (SMILES) | pKi [1, 2] | pKi (human recombinant GR) | pKi [1]
> 9.30 | CCn1ncc(S(=O)(=O)N2CCC3=Cc4c(cnn4-c4ccc(F)cc4)C[C@]3(C(=O)c3ccccn3)C2)n1 [Example 11CH, (R)-(6-((2-ethyl-2H-1,2,3-triazol-4-yl)sulfonyl)-1-(4-fluorophenyl)-4,4a,5,6,7,8-hexahydro-1H-pyrazolo[3,4-g]isoquinolin-4a-yl)(pyridin-2-yl)methanone] | > 7.70 |  | 
> 9.30 | O=C(c1nccs1)[C@]12Cc3cnn(-c4ccc(F)cc4)c3C=C1CCN(S(=O)(=O)c1ccc(F)cc1)C2 [Example 5, (R)-(1-(4-fluorophenyl)-6-((4-fluorophenyl)sulfonyl)-4,4a,5,6,7,8-hexahydro-1H-pyrazolo[3,4-g]isoquinolin-4a-yl)(thiazol-2-yl)methanone] | 7.00 to 7.70 |  | 
 | Cc1ccccc1S(=O)(=O)N1CCC2=Cc3c(cnn3-c3ccc(F)cc3)C[C@]2(C(=O)c2ccccn2)C1 [Example 2C, (R)-(1-(4-fluorophenyl)-6-(o-tolylsulfonyl)-4,4a,5,6,7,8-hexahydro-1H-pyrazolo [3,4-g]isoquinolin-4a-yl)(pyridin-2-yl)methanone] | > 7.70 | > 9.30 | 
> 9.30 | O=C(c1ccccn1)[C@]12Cc3cnn(-c4ccc(F)cc4)c3C=C1CCN(S(=O)(=O)c1cccc(F)c1)C2 [Example 5G, (R)-(1-(4-fluorophenyl)-6-((3-fluorophenyl)sulfonyl)-4,4a,5,6,7,8-hexahydro-1H-pyrazolo[3,4-g]isoquinolin-4a-yl)(pyridin-2-yl)methanone] | > 7.70 |  | 
> 9.30 | N#Cc1ccc(CS(=O)(=O)N2CCC3=Cc4c(cnn4-c4ccc(F)cc4)C[C@]3(C(=O)c3nccs3)C2)cc1 [Example 5B, (R)-4-(((1-(4-fluorophenyl)-4a-(thiazole-2-carbonyl)-4a,5,7,8-tetrahydro-1H-pyrazolo[3,4-g]isoquinolin-6 (4H)-yl)sulfonyl)methyl)benzonitrile] | ≤ 7.00 |  | 
> 9.30 | Cc1cccc(S(=O)(=O)N2CCC3=Cc4c(cnn4-c4ccc(F)cc4)C[C@]3(C(=O)c3nccn3C)C2)c1 [Example 13A, (R)-(1-(4-fluorophenyl)-6-(m-tolylsulfonyl)-4,4a,5,6,7,8-hexahydro-1H-pyrazolo [3,4-g]isoquinolin-4a-yl)(1-methyl-1H-imidazol-2-yl)methanone] | 7.00 to 7.70 |  | 
9.00 to 9.30 | Cc1cnc(C(=O)[C@]23Cc4cnn(-c5ccc(F)cc5)c4C=C2CCN(S(=O)(=O)c2ccnn2C)C3)s1 [Example 12V, (R)-(1-(4-fluorophenyl)-6-((1-methyl-1H-pyrazol-5-yl)sulfonyl)-4,4a,5,6,7,8-hexahydro-1H-pyrazolo[3,4-g]isoquinolin-4a-yl)(5-methylthiazol-2-yl)methanone] | 7.00 to 7.70 |  | 
> 9.30 | O=C(c1ccccn1)[C@]12Cc3cnn(-c4ccc(F)cc4)c3C=C1CCN(S(=O)(=O)c1ccc(N3CCOCC3)nc1)C2 [Example 3, (R)-(1-(4-fluorophenyl)-6-((6-morpholinopyridin-3-yl)sulfonyl)-4,4a,5,6,7,8-hexahydro-1H-pyrazolo[3,4-g]isoquinolin-4a-yl)(pyridin-2-yl)methanone] | 7.00 to 7.70 |  | 
 | O=C(c1cccnc1)[C@]12Cc3cnn(-c4ccc(F)cc4)c3C=C1CCN(S(=O)(=O)c1ccc(C(F)(F)F)cc1)C2 [Example 1B, (R)-(1-(4-fluorophenyl)-6-((4-(trifluoromethyl)phenyl)sulfonyl)-4,4a,5,6,7,8-hexahydro-1H-pyrazolo[3,4-g]isoquinolin-4a-yl)(pyridin-3-yl)methanone] |  | 9.00 to 9.30 | < 7.00
> 9.30 | O=C(c1nccs1)[C@]12Cc3cnn(-c4ccc(F)cc4)c3C=C1CCN(S(=O)(=O)c1ccc(C(F)(F)F)c(F)c1)C2 [Example 12K, (R)-(6-((3-fluoro-4-(trifluoromethyl)phenyl)sulfonyl)-1-(4-fluorophenyl)-4,4a,5,6,7,8-hexahydro-1H-pyrazolo[3,4-g]isoquinolin-4a-yl)(thiazol-2-yl)methanone] | 7.00 to 7.70 |  | 
> 9.30 | Cc1ccc(C(=O)[C@]23Cc4cnn(-c5ccc(F)cc5)c4C=C2CCN(S(=O)(=O)c2cccc(C)c2)C3)nc1 [Example 12F, (R)-(1-(4-fluorophenyl)-6-(m-tolylsulfonyl)-4,4a,5,6,7,8-hexahydro-1H-pyrazolo [3,4-g]isoquinolin-4a-yl)(5-methylpyridin-2-yl)methanone] | > 7.70 |  | 
> 9.30 | CC(C)n1ncc(S(=O)(=O)N2CCC3=Cc4c(cnn4-c4ccc(F)cc4)C[C@]3(C(=O)c3ccccn3)C2)n1 [Example 11CT, (R)-(1-(4-fluorophenyl)-6-((2-isopropyl-2H-1,2,3-triazol-4-yl)sulfonyl)-4,4a,5,6,7,8-hexahydro-1H-pyrazolo[3,4-g]isoquinolin-4a-yl)(pyridin-2-yl)methanone] | > 7.70 |  | 
> 9.30 | CS(=O)(=O)c1cccc(S(=O)(=O)N2CCC3=Cc4c(cnn4-c4ccc(F)cc4)C[C@]3(C(=O)c3ccccn3)C2)c1 [Example 11Y, (R)-(1-(4-fluorophenyl)-6-((3-(methylsulfonyl)phenyl)sulfonyl)-4,4a,5,6,7,8-hexahydro-1H-pyrazolo[3,4-g]isoquinolin-4a-yl)(pyridin-2-yl)methanone] | 7.00 to 7.70 |  | 
> 9.30 | COc1ccnc(C(=O)[C@]23Cc4cnn(-c5ccc(F)cc5)c4C=C2CCN(S(=O)(=O)c2cc(F)c(F)c(F)c2)C3)c1 [Example 1M, (R)-(1-(4-fluorophenyl)-6-((3,4,5-trifluorophenyl)sulfonyl)-4,4a,5,6,7,8-hexahydro-1H-pyrazolo[3,4-g]isoquinolin-4a-yl)(4-methoxypyridin-2-yl)methanone] | > 7.70 |  | 
> 9.30 | O=C(c1ccccn1)[C@]12Cc3cnn(-c4ccc(F)cc4)c3C=C1CCN(S(=O)(=O)c1cccc(OC(F)(F)F)c1)C2 [Example 11I, (R)-(1-(4-fluorophenyl)-6-((3-(trifluoromethoxy)phenyl)sulfonyl)-4,4a,5,6,7,8-hexahydro-1H-pyrazolo[3,4-g]isoquinolin-4a-yl)(pyridin-2-yl)methanone] | > 7.70 |  | 
